Source: patent US12459974B2, “Bicyclic peptide ligands specific for Nectin-4” (priority 2018, dated 2025)
*1 amine or outer side, *2 acyl side, *3 side chain or, on linkers, in order; H or OH if unused. Where a SMILES comes first, the peptide text is derived from it. Bridges are numbered along the chain shown (N, C = ends). Roman numbers before positions name the chains, in order. [ ]: non-standard residue; d: D form. The star is where a group is joined. TATA = O=C(CC[*:1])N1CN(C(=O)CC[*:2])CN(C(=O)CC[*:3])C1; Dolaproine = CO[C@@H]([C@@H]1CCCN1)[C@@H](C)C(=O)O; Dil = CC[C@H](C)[C@H](NC)[C@@H](CC(=O)O)OC; 1Nal = N[C@@H](Cc1cccc2ccccc12)C(=O)O; X3 = O=C(CCCC(=O)[*:2])NCCC(=O)[*:1]; PABC = O=C(OCc1ccc(N[*:1])cc1)[*:2]; X4 = C[C@@H](N*)[C@@H](O)c1ccccc1; Hyp = O=C(O)[C@@H]1C[C@@H](O)CN1; hArg = N=C(N)NCCCC[C@H](N)C(=O)O; Cit = NC(=O)NCCC[C@H](N)C(=O)O; NMeV = CN[C@H](C(=O)O)C(C)C; Sar = CNCC(=O)O

Columns and labels:
NCI-H292 xenograft = experiment: Example 1: in vivo efficacy in NCI-H292 xenograft (NSCLC model) in BALB/c nude mice; design: species or system Mus Musculus; settings: 5 mg/kg
Description: The major endpoint was to see if the tumor growth could be delayed or mice could be cured. Tumor volume was measured three times weekly in two dimensions using a caliper, and the volume was expressed in mm^3 using the formula: V=0.5 a×b^2 where a and b are the long and short diameters of the tumor, respectively. The tumor size was then used for calculations of T/C value. The T/C value (in percent) is an indication of antitumor effectiveness; T and C are the mean volumes of the treated and control groups, respectively, on a given day. TGI was calculated for each group using the formula: TGI (%)=[1−(Ti−T0)/(Vi−V0)]×100; Ti is the average tumor volume of a treatment group on a given day, T0 is the average tumor volume of the treatment group on the day of treatment start, Vi is the average tumor volume of the vehicle control group on the same day with Ti, and V0 is the average tumor volume of the vehicle group on the day of treatment start.
A one-way ANOVA was performed to compare tumor volume among groups, and when a significant F-statistics (a ratio of treatment variance to the error variance) was obtained, comparisons between groups were carried out with Games-Howell test. All data were analyzed using GraphPad Prism 5.0. P<0.05 was considered to be statistically significant.
The NCI-H292 tumor cells will be maintained in medium supplemented with 10% heat inactivated fetal bovine serum at 37° C. in an atmosphere of 5% CO2 in air. The tumor cells will be routinely subcultured twice weekly. The cells growing in an exponential growth phase will be harvested and counted for tumor inoculation.
Each mouse will be inoculated subcutaneously at the right flank with NCI-H292 tumor cells (10×10^6) in 0.2 ml of PBS for tumor development. The animals will be randomized and treatment will be started when the average tumor volume reaches approximately 158-406 mm^3.

human Nectin-4 = molecular target: T1, human Nectin-4 (Homo sapiens, UniProt Q96NY8); experiment: Nectin-4 competition binding assay (fluorescence polarisation); settings: competition with fluorescent peptide SEQ ID NO: 217; read-out: Ki
T1 sequence (Q96NY8 32-510): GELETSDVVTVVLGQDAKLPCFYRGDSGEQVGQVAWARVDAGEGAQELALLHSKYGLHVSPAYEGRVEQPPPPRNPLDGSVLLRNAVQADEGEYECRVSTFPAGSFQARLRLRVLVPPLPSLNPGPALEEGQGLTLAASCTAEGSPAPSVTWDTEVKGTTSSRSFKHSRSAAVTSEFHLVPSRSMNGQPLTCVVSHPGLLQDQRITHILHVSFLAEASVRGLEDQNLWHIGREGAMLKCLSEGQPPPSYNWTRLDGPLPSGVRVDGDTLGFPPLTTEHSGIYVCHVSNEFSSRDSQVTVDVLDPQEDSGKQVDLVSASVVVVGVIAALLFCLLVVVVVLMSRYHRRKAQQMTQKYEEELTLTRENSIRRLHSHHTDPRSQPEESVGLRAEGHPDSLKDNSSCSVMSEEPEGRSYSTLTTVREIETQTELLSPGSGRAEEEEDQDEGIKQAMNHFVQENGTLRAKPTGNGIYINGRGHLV
How it was run: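 Ki derived by cubic-equation fit of mP data, with tracer peptide concentration, its Kd and Nectin-4 level as fixed inputs. Competition set up by adding 2-fold peptide dilutions (≤5% DMSO), then Nectin-4, then fluorescent peptide; polarisation measured as for direct binding.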

| Structure (SMILES) | Ki (human Nectin-4) [nM] | bodyweight (in words) (NCI-H292 xenograft) |
| --- | --- | --- |
| CC[C@H](C)[C@@H]([C@@H](CC(=O)N1CCC[C@H]1[C@H](OC)[C@@H](C)C(=O)N[C@H](C)[C@@H](O)c1ccccc1)OC)N(C)C(=O)[C@@H](NC(=O)[C@H](C(C)C)N(C)C(=O)OCc1ccc(NC(=O)[C@H](CCCNC(N)=O)NC(=O)[C@@H](NC(=O)CCCC(=O)NCCC(=O)N(C)CC(=O)N(C)CC(=O)N(C)CC(=O)N(C)CC(=O)N(C)CC(=O)N[C@H]2CSCCC(=O)N3CN4CN(C3)C(=O)CCSC[C@H](NC(=O)[C@@H](CC(=O)O)NC(=O)[C@H](Cc3ccccc3)NC(=O)[C@@H]3CCCN3C2=O)C(=O)N[C@@H](CCSC)C(=O)N[C@@H](CCCCNC(=N)N)C(=O)N[C@@H](CC(N)=O)C(=O)N[C@@H](Cc2c[nH]c3ccccc23)C(=O)N[C@@H](CO)C(=O)N[C@@H](Cc2c[nH]c3ccccc23)C(=O)N2CCC[C@H]2C(=O)N[C@@H]([C@@H](C)CC)C(=O)N[C@@H](Cc2c[nH]c3ccccc23)C(=O)N[C@H](C(N)=O)CSCCC4=O)C(C)C)cc1)C(C)C [BCY7683, MMAE-PABC-Cit-Val-Glutaryl-BCY7556] (I: [Sar][Sar][Sar][Sar][Sar]CPF[dD]CM[hArg]NWSWPIWC-NH2 / II: V[Cit][PABC][NMeV]V[Dil][Dolaproine]-X4; linker I:6-I:10-I:20 via TATA; linker I:N-II:N via X3) |  | severe bodyweight loss |
| CC[C@H](C)[C@@H]1NC(=O)[C@@H]2CCCN2C(=O)[C@H]([C@@H](C)O)NC(=O)[C@H](CO)NC(=O)[C@H](Cc2c[nH]c3ccccc23)NC(=O)[C@H](CC(N)=O)NC(=O)[C@H](CCCCNC(=N)N)NC(=O)[C@H](CC(C)C)NC(=O)[C@@H]2CSCCC(=O)N3CN(CN(C3)C(=O)CCSC[C@H](NC(C)=O)C(=O)N3CCC[C@H]3C(=O)N[C@@H](Cc3ccccc3)C(=O)N[C@H](CC(=O)O)C(=O)N2)C(=O)CCSC[C@@H](C(N)=O)NC(=O)[C@H](Cc2c[nH]c3ccccc23)NC1=O [BCY8039, Ac-(SEQ ID NO: 161)] (Ac-CPF[dD]CL[hArg]NWSTPIWC-NH2; linker 1-5-15 via TATA; C-terminus assumed) | 21.4 |  |
| CC[C@H](C)[C@@H]1NC(=O)[C@H](CCCNC(=N)N)NC(=O)[C@H](CC(N)=O)NC(=O)[C@@H]2CSCCC(=O)N3CN(CN(C3)C(=O)CCSC[C@H](NC(C)=O)C(=O)N[C@@H](C)C(=O)N3CCC[C@H]3C(=O)N[C@@H](CC(C)C)C(=O)N[C@@H](CO)C(=O)N[C@@H](CC(=O)O)C(=O)N[C@@H](Cc3ccc(O)cc3)C(=O)N[C@@H](Cc3c[nH]c4ccccc34)C(=O)N2)C(=O)CCSC[C@@H](C(N)=O)NC1=O [BCY8044, Ac-(SEQ ID NO: 34)] (Ac-CAPLSDYWCNRIC-NH2; linker 1-9-13 via TATA; C-terminus assumed) | 170 |  |
| CSCC[C@@H]1NC(=O)[C@@H]2CSCCC(=O)N3CN(CN(C3)C(=O)CCSC[C@H](NC(C)=O)C(=O)N3CCC[C@H]3C(=O)N[C@@H](Cc3cccc4ccccc34)C(=O)N[C@H](CCCNC(=N)N)C(=O)N2)C(=O)CCSC[C@@H](C(N)=O)NC(=O)[C@H](Cc2c[nH]c3ccccc23)NC(=O)[C@@H]2C[C@@H](O)CN2C(=O)[C@@H]2CCCN2C(=O)[C@H]([C@@H](C)O)NC(=O)[C@H](CCO)NC(=O)[C@H](Cc2c[nH]c3ccccc23)NC(=O)[C@H](CC(=O)O)NC(=O)[C@H](CCCCNC(=N)N)NC1=O [BCY8188, Ac-(SEQ ID NO: 193)] | 20 |  |

Continued, in another order:

| Ki (human Nectin-4) [nM] | Structure (SMILES) | bodyweight (in words) (NCI-H292 xenograft) |
| --- | --- | --- |
| 8 | CC[C@H](C)[C@@H]1NC(=O)[C@@H]2CCCN2C(=O)[C@H]([C@@H](C)O)NC(=O)[C@H](CO)NC(=O)[C@H](Cc2c[nH]c3ccccc23)NC(=O)[C@H](CC(N)=O)N(C)C(=O)[C@H](CCCCNC(=N)N)NC(=O)[C@H](CCSC)NC(=O)[C@@H]2CSCCC(=O)N3CN(CN(C3)C(=O)CCSC[C@H](NC(C)=O)C(=O)N3CCC[C@H]3C(=O)N[C@@H](Cc3ccccc3)C(=O)N[C@H](CC(=O)O)C(=O)N2)C(=O)CCSC[C@@H](C(N)=O)NC(=O)[C@H](Cc2c[nH]c3ccccc23)NC1=O [BCY8154, Ac-(SEQ ID NO: 174)] |  |
| 177 | CC[C@H](C)[C@H]1C(=O)N[C@@H](Cc2c[nH]c3ccccc23)C(=O)N[C@H](C(N)=O)CSCCC(=O)N2CN3CN(C2)C(=O)CCSC[C@H](NC(C)=O)C(=O)N2CCC[C@H]2C(=O)N[C@@H](Cc2ccccc2)C(=O)N[C@H](CC(=O)O)C(=O)N[C@@H](CSCCC3=O)C(=O)N[C@@H](CCSC)C(=O)N[C@@H](CCCCNC(=N)N)C(=O)N[C@@H](CC(N)=O)C(=O)N[C@@H](Cc2c[nH]c3ccccc23)C(=O)N[C@@H](CO)C(=O)N[C@@H]([C@@H](C)O)C(=O)N2CCC[C@H]2C(=O)N1C [BCY8158, Ac-(SEQ ID NO: 176)] |  |
| 3.5 | CSCC[C@@H]1NC(=O)[C@@H]2CSCCC(=O)N3CN(CN(C3)C(=O)CCSC[C@H](NC(C)=O)C(=O)N3CCC[C@H]3C(=O)N[C@@H](Cc3cccc4ccccc34)C(=O)N[C@H](CC(=O)O)C(=O)N2)C(=O)CCSC[C@@H](C(N)=O)NC(=O)[C@H](Cc2c[nH]c3ccccc23)NC(=O)[C@@H]2C[C@@H](O)CN2C(=O)[C@@H]2CCCN2C(=O)[C@H]([C@@H](C)O)NC(=O)[C@H](CO)NC(=O)[C@H](Cc2c[nH]c3ccccc23)NC(=O)[C@H](CC(=O)O)NC(=O)[C@H](CCNC(=N)N)NC1=O [BCY8181, Ac-(SEQ ID NO: 186)] |  |
| 4.5 | CSCC[C@@H]1NC(=O)[C@@H]2CSCCC(=O)N3CN(CN(C3)C(=O)CCSC[C@H](NC(C)=O)C(=O)N3CCC[C@H]3C(=O)N[C@@H](Cc3cccc4ccccc34)C(=O)N[C@H](CCCNC(=N)N)C(=O)N2)C(=O)CCSC[C@@H](C(N)=O)NC(=O)[C@H](Cc2c[nH]c3ccccc23)NC(=O)[C@@H]2C[C@@H](O)CN2C(=O)[C@@H]2CCCN2C(=O)[C@H](CO)NC(=O)[C@H](CO)NC(=O)[C@H](Cc2c[nH]c3ccccc23)NC(=O)[C@H](CC(=O)O)NC(=O)[C@H](CCCCNC(=N)N)NC1=O [BCY8191, Ac-(SEQ ID NO: 195)] (Ac-CP[1Nal][dR]CM[hArg]DWSSP[Hyp]WC-NH2; linker 1-5-15 via TATA; C-terminus assumed) |  |
